In ChEMBL document CHEMBL1154328, “New inhibitors of the complement system inspired in K76-COOH. A SAR study of filifolinol derivatives through modifications of the C3' position” (Bioorg Med Chem Lett, 2009):
pIC50: −log10 of the molar value.

Assay: Inhibition of serum complement system-mediated hemolysis of human RBCs
Conditions: not given; call rule not given here

For `C[C@H]1CCCC(C)(C)[C@@]12Cc1cc(C(=O)O)ccc1O2`, the IC50 was “Not Active”.

Same assay, conditions: read-out: IC50

Going from `CCCN[C@H]1CC[C@H](C)[C@]2(Cc3cc(C(=O)O)ccc3O2)C1(C)C` to `CCCN[C@@H]1CC[C@H](C)[C@]2(Cc3cc(C(=O)O)ccc3O2)C1(C)C`, the pIC50 rises from 2.56 to 3.68 (1.12 log units).

`C[C@@H]1CCC2C(C)(C)[C@H](O)[C@H](O)C[C@]2(C)[C@@]12Cc1c(O)cc(C(=O)O)c(C=O)c1O2` (stereo partly specified) and `C[C@H]1CC[C@@H](O)C(C)(C)[C@@]12Cc1cc(C(=O)O)ccc1O2` are within 0.2 log units of each other in pIC50: 3.24 for the first, 3.29 for the second.

First: COc1ccc(C(=O)O)c2c1C[C@@](C)([C@H]1CC=C(C)CC1)O2
Second: CC1=CC[C@H]([C@]2(C)Cc3c(O)ccc(C(=O)O)c3O2)CC1
The pIC50 of the first is 0.50 log units higher: 3.17 for the first, 2.67 for the second. The first is the more potent here.

`C=CCO[C@@H]1CC[C@H](C)[C@]2(Cc3cc(C(=O)O)ccc3O2)C1(C)C` and `C[C@H]1CC[C@@H](OCCO)C(C)(C)[C@@]12Cc1cc(C(=O)O)ccc1O2` are within 0.2 log units of each other in pIC50: 2.51 for the first, 2.36 for the second.

First: C[C@H]1CC[C@@H](OCC(O)CO)C(C)(C)[C@@]12Cc1cc(C(=O)O)ccc1O2 (stereo partly specified)
Second: CCCO[C@@H]1CC[C@H](C)[C@]2(Cc3cc(C(=O)O)ccc3O2)C1(C)C
The pIC50 of the first is 0.93 log units lower: 2.33 for the first, 3.26 for the second. The second is the more potent here.

Going from `C[C@H]1CC[C@H](O)C(C)(C)[C@@]12Cc1cc(C(=O)O)ccc1O2` to `COC(=O)c1ccc2c(c1)C[C@@]1(O2)[C@@H](C)CC[C@@H](O)C1(C)C` [FILIFOLINOL], the pIC50 rises from 1.92 to 2.70 (0.78 log units).

First: COc1ccc(C(=O)O)c2c1C[C@@](C)([C@@H]1CC[C@](C)(O)[C@H](O)C1)O2
Second: C[C@H]1CC[C@@](O)(CC(O)CO)C(C)(C)[C@@]12Cc1cc(C(=O)O)ccc1O2 (stereo partly specified) [listing 1 of 2 here]
The pIC50 of the first is 0.52 log units lower: 2.80 for the first, 3.32 for the second.

`C[C@H]1CC[C@@](O)(CC(O)CO)C(C)(C)[C@@]12Cc1cc(C(=O)O)ccc1O2` (stereo partly specified) [listing 2 of 2 here] showed a pIC50 of 2.48.
